Reference: patent US7504384B2 (priority 2000, dated 2009)
Where two headings read alike, the source gives them in different places.

How the values were obtained:
[1] = tested on: cysteinyl leukotrienes (LTC4, LTD4 and LTE4); assay: Cysteinyl leukotriene level in BAL of OVA-induced asthmatic rats
mice = assay: Acute (7 day) toxicity test; type: in vivo; details: for Body weight (g) Final / Hematocrit % / RBC × 10^6 / WBC × 10^3: 7 day; for Body weight (g) Final / Hematocrit % / RBC × 10^6 / WBC × 10^3 / Body weight (g) Start: mean ± SEM; for toxicity: mortality rate, body weight, blood count, hematocrit, internal organ histology: mice, one week after a single i.p. dose of 1000, 500 or 200 mg/kg, versus untreated mice
Procedure: […] Mortality rate, body weight, blood count (red and white cells), hematocrit, and internal organ histology after sacrifice were assessed. These parameters were compared in Lipid-conjugate-treated and in control, untreated mice.

[2] = molecular target: V3 (third variable) domain of the HIV-1 envelope glycoprotein gp120; assay: V3 antibody binding (ELISA); design: species or system human immunodeficiency virus type 1 (HIV-1); details: standard ELISA
Procedure: V3 antibody binding is an assay that uses an antibody that binds to the V3 (third variable) domain of the human immunodeficiency virus type 1 (HIV-1) envelope glycoprotein gp120. Anti-V3 domain antibodies may provide an indicator of the presence and amount of HIV. V3 antibody binding was determined by standard ELISA.

[3] = tested on: nitric oxide (NO) production by BAL macrophages; type: in vivo, Brown Norway rats; details: compared to asthmatic and naïve rats, p<0.001; macrophages cultured without further treatment
HIV-1IIIB = assay: Inhibition of p24 production (HIV-1IIIB infection of MT-2 cells); type: cell-based; details: fourth day, p24 ELISA
Procedure: Experiment 1.2: Inhibition of HIV-1IIIB Infection
After 1 h, half of the culture medium was changed and replaced by fresh medium (with/without Lipid-conjugate) and after 24 h, the second half of the culture medium was changed and replaced by fresh medium (with/without Lipid-conjugate). On the fourth day after incubation at 37° C., 100 μl of culture supernatants were collected from each well and an equal volume of fresh medium was added to the wells. The collected supernatants were mixed with an equal volume of 5% (v/v) Triton X-100 and assayed for p24 antigen using an ELISA kit from Coulter Immunology (Hialeah, Fla.).

[4] = tested on: HIV-1IIIB-infected H9 cells and uninfected MT-2 cells; assay: Inhibition of fusion between HIV-infected and uninfected cells; type: cell-based; details: for IC50 (mean ± SD), inhibition of fusion / IC90 (mean ± SD), inhibition of fusion: H9/HIV-1 IIIB + MT-2 cells, 2 h; for IC50 / IC90: Table 1.4
Procedure: In this assay, HIV-1IIIB-infected H9 cells were labeled with BCECF (2′,7′-bis(2-carboxyethyl)-5-6-carboxyfluorescein-acetoxymethyl-ester, Molecular Probes, Eugene, Oreg.) according to the manufacturer's instructions. BCECF-labeled H9/HIV-1 IIIB cells (10^4) were mixed with 1×10^5 uninfected MT-2 cells. After incubation in a 96-well plate at 37° C. for 2 h, the fused and unfused labeled cells were counted under an inverted fluorescence microscope at ×160 magnification. At least 200 BCECF-labeled cells were counted and the proportion of fused cells was determined Fusion tests were carried out in the presence and absence of graded quantities of the tested Lipid-conjugates. […] The IC50 represents the concentration of a drug that is required to achieve 50% inhibition. Similarly, the IC90 represents the concentration of a drug that is required to achieve 90% inhibition.

HIV = HIV infectivity of supernatant from whole blood mixed with HIV, on HT4-1022 cells; type: cell-based; details: whole blood mixed with HIV and Lipid-conjugate (50 μM Compound XXIV, 30 μM Compound XXII) for 30 min; FIG. 1.1
Excerpt: The cells were then spun and the supernatant was examined for HIV infectivity on HT4-1022 cells as described by Margolis-Nunno et al. (Transfusion, 36, 743-750, 1996).

[5] = tested on: Respiratory syncytial virus; type: cell-based, strain A2
Punta Toro virus = type: cell-based, strain Adames
[6] = tested on: Madin Darby canine kidney (MDCK) cells; type: cell-based; details: high concentration, Neutral Red Uptake Assay
[7] = tested on: Madin Darby canine kidney (MDCK) cells; assay: Cytotoxicity assay, visual observation, uninfected cells; type: cell-based; details: high concentration
Procedure: Uninfected cells were treated with each concentration of test compound in duplicate and run in parallel with the infected, treated wells in the CPE inhibition tests described above. The toxicity control cells (uninfected and treated) were examined under a light microscope for changes in cell appearance compared to control cells (uninfected, untreated) on the same plate as described above. The 50% cell inhibitory (cytotoxic) concentrations (IC50) were calculated by regression analysis.

[8] = tested on: Guinea pig tracheal rings; assay: Inhibition of tracheal ring contraction; details: stimulant Histamine (20 μM); Lipid-conjugate 15 μM
Procedure: A muscle preparation (tracheal rings) was isolated from rats (Experiments 3.1-3.3) and from guinea pigs (Experiments 3.4-3.5). Muscle contraction was measured by attachment of the muscle to a pressure transducer, which works much like a spring. Administration of asthmatogenic substances such as endothelin-1 (ET) and acetylcholine (AcCh) induces muscle contraction. Endothelins are released upon vascular endothelial injury, and they activate macrophages and act as strong chemo-attractants for circulating monocytes. Endothelins affect vascular smooth muscle fibroblast proliferation; help regulate vascular, airway, and intestinal smooth muscle tone; increase the activity of bone alkaline phosphatase; stimulate release of atrial natriuretic peptide (ANP) from atrial cardiocytes; inhibit the release of renin from glomeruli and modulate norepinephrine at sympathetic nerve termini. Opposing vasomotor effects are regulated through the binding of distinct endothelin receptors for vasoconstriction and vasodilation. Endothelins have been linked to atherosclerosis and various cardiovascular disease states. ET-1 is important in congestive heart failure, renal failure, pulmonary hypertension, hyperlipidemia and metastatic prostate cancer. On the other hand, AcCh is one of the three main receptors on the bronchi of the lungs, which are basically tubes with muscular walls. Stimulation of bronchial AcCh receptor induces muscle contraction and decreased airflow through the bronchi. Thus, ET and AcCh were used to experimentally induce muscle contraction in the lungs as a model of obstructive respiratory disorders.
Experiment 3.4: Guinea pig tracheal rings (in a linear array), immersed in a ringer bath, were connected to an apparatus measuring the length of the ring chain. […] Human airways have both Histamine (H)-1 and H2 receptors. H1 receptors, which mediate bronchoconstriction, predominate. Histamine application in experimental models produces signs and symptoms of asthma, such as narrowing of the airways, mucus secretion, wheezing, and coughing.

[9] = listed as Influenza A (H1N1 strain)
[10] = listed as Influenza A (H3N2 strain)

dipalmitoyl-PE conjugated to HA [Compound XXII]
CysLT levels in BAL ([1]; SC administration, compared with Naive rats): no significant difference | CysLT levels in BAL ([1]; aerosol inhalation, compared with Naïve rats, P<0.01 vs Asthmatic): no significant difference | Body weight (g) Final (mice; 250 mg/kg body weight): 23.1 ± 0.6 g | Hematocrit % (mice; 250 mg/kg body weight): 43.3 ± 0.7% | RBC × 10^6 (mice; 250 mg/kg body weight): 11.4 ± 0.1 × 10^6 | WBC × 10^3 (mice; 250 mg/kg body weight): 7.7 ± 0.2 × 10^3 | Body weight (g) Start (mice; 250 mg/kg body weight): 22.1 ± 0.4 g | Body weight (g) Final (mice; 500 mg/kg body weight): 22.3 ± 0.4 g | Hematocrit % (mice; 500 mg/kg body weight): 44.7 ± 2.3% | RBC × 10^6 (mice; 500 mg/kg body weight): 11.5 ± 0.3 × 10^6 | WBC × 10^3 (mice; 500 mg/kg body weight): 8.1 ± 1.3 × 10^3 | Body weight (g) Start (mice; 500 mg/kg body weight): 21.4 ± 0.3 g | Body weight (g) Final (mice; 1000 mg/kg body weight): 22.1 ± 0.2 g | Hematocrit % (mice; 1000 mg/kg body weight): 40.3 ± 0.7% | RBC × 10^6 (mice; 1000 mg/kg body weight): 10.9 ± 0.4 × 10^6 | WBC × 10^3 (mice; 1000 mg/kg body weight): 7.4 ± 0.6 × 10^3 | Body weight (g) Start (mice; 1000 mg/kg body weight): 21.7 ± 0.2 g | toxicity: mortality rate, body weight, blood count, hematocrit, internal organ histology (mice): did not alter the parameters | IC50 [2]: 45 µM | NO level, BAL macrophages [3]: reduced | IC50 (HIV-1IIIB): 3.11 µM | IC50 (mean ± SD), inhibition of p24 production (HIV-1IIIB): 207.0 ± 18.0 µg/mL | IC90 (HIV-1IIIB): 5.76 µM | IC90 (mean ± SD), inhibition of p24 production (HIV-1IIIB): 384.3 ± 79.3 µg/mL | IC50 (mean ± SD), inhibition of fusion [4]: >500 µg/mL | IC90 (mean ± SD), inhibition of fusion [4]: >500 µg/mL | IC50 [4]: > 7.5 µM | IC90 [4]: > 7.5 µM | HIV infectivity (HIV): prevent HIV infection of cells

dipalmitoyl-phosphatidyl-ethanolamine conjugated to heparin [Compound XXIV]
toxicity: mortality rate, body weight, blood count, hematocrit, internal organ histology (mice): did not alter the parameters | EC50 ([5]; low concentrations, Neutral Red Uptake Assay, Respiratory Syncytial A): >100 µg/mL | activity vs RSV by neutral red assay ([5]; lower range of doses): not active | IC50 [2]: 140 µM | SI (IC50/EC50) (Punta Toro virus): 0 | EC50 (Punta Toro virus; low concentrations, Neutral Red Uptake Assay, Punta Toro A): >100 µg/mL | IC50 [6, 9]: 64 µg/mL | IC50 [6, 10]: 110 µg/mL | IC50 ([6]; listed as Influenza B): 220 µg/mL | IC50 [7, 9]: 35 µg/mL | IC50 [7, 10]: 100 µg/mL | IC50 ([7]; listed as Influenza B): 90 µg/mL | IC50 (HIV-1IIIB): 0.7 µM | IC50 (mean ± SD), inhibition of p24 production (HIV-1IIIB): 10.0 ± 2.3 µg/mL | IC90 (HIV-1IIIB): 1.35 µM | IC90 (mean ± SD), inhibition of p24 production (HIV-1IIIB): 19.3 ± 4.5 µg/mL | % Inhibition of tracheal ring contraction [8]: 56 ± 0.05% | IC50 (mean ± SD), inhibition of fusion [4]: 7.9 ± 1.3 µg/mL | IC90 (mean ± SD), inhibition of fusion [4]: 15.3 ± 3.9 µg/mL | IC50 [4]: 0.55 µM | IC90 [4]: 1.07 µM | HIV infectivity (HIV): prevent HIV infection of cells
